Key:
[1] = test system: cancer cell lines shown in Table 4; experiment: Test for inhibition of activity of GPX4 1 (cell growth inhibition under a GPX4 inhibitor); assay type: cell-based, human; details: cancer cell having a suppressed function of SMARCA4
Description: In each cancer cell line, cell growth inhibition activity under a GPX4 inhibitor was evaluated. As the GPX4 inhibitor, ML210 (CAS No: 1360705-96-9) which is a low-molecular GPX4 inhibitor reported to be a compound inhibiting the enzymatic activity of GPX4:
These compounds were each added, and each cell line was seeded at 100 μL/well so as to attain the seeding density (2) shown in Table 5 below. The cells were cultured for 7 days, the intracellular ATP which is a marker for cell survival was then measured using Cell Titer-Glo 2.0 Cell Viability Assay (manufactured by Promega Corporation), and the cell survival rate was calculated, where the intracellular ATP level in each cancer cell line given only a solvent (dimethyl sulfoxide (DMSO) or water) for the compound and cultured for 7 days was defined as 100%.

SK-HEP-1 tumor = experiment: Test for drug efficacy of ML210 on SK-HEP-1 tumor-bearing mouse; assay type: in vivo, BALB/c-nu/nu mice; details: SK-HEP-1 tumor-bearing mice; oral, once a day, 100 mg/kg from day 11; measured days 11, 14 and 18; versus vehicle; FIG. 9
Description: For examining the efficacy of the GPX4 inhibitor on SWI/SNF complex factor-deficient cancer in vivo, a test was conducted in which ML210 was administered to mice in which SK-HEP-1 (human cancer cell line suppressing a function of SMARCA4) was transplanted (SK-HEP-1 tumor-bearing mice). […]
Subsequently, to mice (SK-HEP-1 tumor-bearing mice) for which the engraftment of the tumor (cancer cell) had been confirmed, a dosing liquid obtained by suspending ML210 at a predetermined concentration in a mixed liquid of 10% dimethyl sulfoxide (manufactured by Wako Company, product code: 043-07216), 10% Cremophor (manufactured by Sigma-Aldrich Co. LLC, product code: C5135), 15% polyethylene glycol 400 (manufactured by Wako Company, product code: 161-09065) and 15% hydroxypropyl-β-cyclodextrin (manufactured by Nihon Shokuhin Kako Co., Ltd., product code: 7585-39-9) was orally administered at a predetermined dose (20 mL/kg) once a day to a daily dosage of 100 mg/kg upon the confirmation of the implantation. The day of inoculation of SK-HEP-1 was defined as day 0, administration of ML210 was started on day 11, and the volume of the tumor was measured on days 11, 14 and 18. The minor diameter and the major diameter of the tumor were measured using an electronic caliper (manufactured by Mitutoyo Corporation, product code: CD-15AX), and the volume of the tumor was calculated by the […].

Row | Compound | cell death and cell growth suppression [1] | volume of the tumor (SK-HEP-1 tumor)
1 | Cc1onc(C(=O)N2CCN(C(c3ccc(Cl)cc3)c3ccc(Cl)cc3)CC2)c1[N+](=O)[O-] [ML210] | markedly suppress cell growth | an increase in volume of the tumor was suppressed as compared to the group given the vehicle
2 | COC(=O)c1ccc([C@H]2c3[nH]c4ccccc4c3C[C@H](C(=O)OC)N2C(=O)CCl)cc1 [RSL3] | markedly suppress cell growth | –
